Test results reported in patent publication US9738636B2, “Fused heterocyclic compounds as selective BMP inhibitors” (Vanderbilt University, priority 2012, dated 2017).

Tested on: BMP4
Test: BMP4 cell assay (BMP reporter)
Type: cell-based
Details: series of scaffold drawing 183 (R, R1)

c1cc(-c2cnc3cc(-c4ccc5c(c4)OCCO5)ccn23)ccn1 [Example 6, 7-(2,3-dihydrobenzo[b][1,4]dioxin-6-yl)-3-(pyridin-4-yl)imidazo[1,2-a]pyridine]
IC50: 6.1 µM
